# Results as given in patent US12077503B2, “Substituted cyclic amides and their use as herbicides” (FMC CORPORATION, priority 2015, dated 2024).
# Where two headings read alike, the source gives them in different places.
# Tests used:
# [1] = system: barnyardgrass (Echinochloa crus-galli); experiment: Test B flooded paddy test; type: in vivo; conditions: Echinochloa crus-galli, Flood, 250 g ai/ha
# How it was run: (§1)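 2-leaf plants; pots flooded 3 cm over soil; cpd added to paddy water; depth held; greenhouse 13–15 d; visual rating vs controls, 0 = no effect, 100 = complete control.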
# [2] = system: ducksalad (Heteranthera limosa); experiment: Test B flooded paddy test; type: in vivo; conditions: Heteranthera limosa, Flood, 250 g ai/ha
# How it was run: as §1
# [3] = system: sedge, umbrella (small-flower umbrella sedge, Cyperus difformis); experiment: Test B flooded paddy test; type: in vivo; conditions: Cyperus difformis, Flood, 250 g ai/ha
# How it was run: as §1
# rice (Oryra sativa) = experiment: Test B flooded paddy test; type: in vivo; conditions: Oryza sativa, Flood, 250 g ai/ha
# How it was run: as §1
# [4] = system: ryegrass, Italian (Italian ryegrass, Lolium multiflorum); experiment: Test A postemergence; type: in vivo; conditions: Lolium multiflorum, post-emergence, 240 h; for pest or weed control at 125 g/ha: 125 g ai/ha; for pest or weed control at 500 g/ha: 500 g ai/ha
# How it was run: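 Seeded soil received test chemicals as a preemergence directed spray, and seedlings at one to two leaves, 2–10 cm tall, received them postemergence, in a non-phytotoxic, surfactant-containing solvent mixture. Pots were held in a greenhouse for approximately 10 d, then rated for injury from 0, no effect, to 100, complete control.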
# [5] = 360 h, visually evaluated after 13 to 15 d, read-out: Plant response rating, Barnyardgrass (0 to 100 scale where 0 is no effect and 100 is complete control)
# [6] = 360 h, visually evaluated after 13 to 15 d, read-out: Plant response rating, Ducksalad (0 to 100 scale where 0 is no effect and 100 is complete control)
# [7] = 360 h, visually evaluated after 13 to 15 d, read-out: Plant response rating, Sedge, Umbrella (0 to 100 scale where 0 is no effect and 100 is complete control)
# [8] = 360 h, visually evaluated after 13 to 15 d, read-out: Plant response rating, Rice (0 to 100 scale where 0 is no effect and 100 is complete control)
# [9] = Postemergence, visual rating about 10 d after treatment, read-out: Ryegrass, Italian plant response rating (0 to 100 scale)
# [10] = Postemergence, visual injury, 0 to 100 scale (0 no effect, 100 complete control), approx. 10 d, read-out: Plant response rating, Ryegrass, Italian
# [11] = Postemergence, visual injury after approx. 10 d, 0 to 100 scale, 0 no effect, 100 complete control, read-out: Plant response rating, Ryegrass, Italian
# [12] = scale of 0 to 100 where 0 is no effect and 100 is complete control, read-out: Barnyardgrass plant response rating
# [13] = scale of 0 to 100 where 0 is no effect and 100 is complete control, read-out: Ducksalad plant response rating
# [14] = scale of 0 to 100 where 0 is no effect and 100 is complete control, read-out: Sedge, Umbrella plant response rating
# [15] = scale of 0 to 100 where 0 is no effect and 100 is complete control, read-out: Rice plant response rating
# [16] = postemergence, visual injury after approximately 10 d, 0 to 100 scale (0 no effect, 100 complete control), read-out: Plant response rating, Ryegrass, Italian
Structure (SMILES),melting point,"pest or weed control at 250 g/ha [1, 5]","pest or weed control at 250 g/ha [2, 6]","pest or weed control at 250 g/ha [3, 7]",pest or weed control at 250 g/ha (rice (Oryra sativa); [8]),"pest or weed control at 125 g/ha [4, 9]","pest or weed control at 500 g/ha [4, 10]","pest or weed control at 250 g/ha [1, 12]","pest or weed control at 250 g/ha [2, 13]","pest or weed control at 250 g/ha [3, 14]",pest or weed control at 250 g/ha (rice (Oryra sativa); [15]),"pest or weed control at 125 g/ha [4, 16]",other results
N#Cc1ccc(NC(=O)C2C(=O)NCC2c2ccccc2)cc1 (centres unmarked) [Compound 1355],186 to 188 °C,,,,,,,,,,,,
O=C1NC[C@H](c2cc(C(F)(F)F)ccn2)[C@H]1C(=O)Nc1cccc(F)c1F (racemic) [Compound 1376],146 to 150 °C,40%,70%,0%,0%,0%,30%,,,,,,
Cc1ccccc1NC(=O)[C@H]1C(=O)N(C)C[C@@H]1c1ccc(C(F)(F)F)cc1 [Compound 1239],123 to 127 °C,,,,,,,,,,,,"pest or weed control at 250 g/ha ([1]; 0 to 100 scale where 0 is no effect and 100 is complete control, read-out: Barnyardgrass plant response rating): 40%; pest or weed control at 250 g/ha ([2]; 0 to 100 scale where 0 is no effect and 100 is complete control, read-out: Ducksalad plant response rating): 100%; pest or weed control at 250 g/ha ([3]; 0 to 100 scale where 0 is no effect and 100 is complete control, read-out: Sedge, Umbrella plant response rating): 0%; pest or weed control at 250 g/ha (rice (Oryra sativa); 0 to 100 scale where 0 is no effect and 100 is complete control, read-out: Rice plant response rating): 20%; pest or weed control at 125 g/ha ([4]; postemergence, visual injury vs untreated controls after approx. 10 d, 0 = no effect, 100 = complete control, read-out: Ryegrass, Italian plant response rating (0 to 100 scale)): 20%; pest or weed control at 500 g/ha ([4]; postemergence, 0 to 100 scale, 0 is no effect, 100 is complete control, read-out: Ryegrass, Italian plant response rating): 50%"
O=C1NC[C@H](c2cccc(C(F)(F)F)n2)[C@H]1C(=O)Nc1cccc(F)c1F [Compound 1385],139 to 142 °C,0%,40%,0%,0%,,20%,,,,,,"pest or weed control at 125 g/ha [4, 11]: 0%"
C=CCOc1cccc(C2CN(C)C(=O)C2C(=O)Nc2ccccc2F)c1 (centres unmarked) [Compound 1329],81 to 84 °C,60%,70%,0%,0%,0%,50%,,,,,,
O=C1NCC(c2ccccc2)C1C(=O)Nc1ccccc1 (centres unmarked) [Compound 1358],180 to 181 °C,0%,0%,0%,0%,,,,,,,,
O=C1NC[C@H](c2cncc(C(F)(F)F)c2)[C@H]1C(=O)Nc1cccc(F)c1F [Compound 1394],206 to 209 °C,40%,75%,0%,10%,,20%,,,,,,"pest or weed control at 125 g/ha [4, 11]: 0%"
CN1C[C@H](c2nccs2)[C@@H](C(=O)Nc2cccc(F)c2F)C1=O [Compound 774],133.9 to 140.7 °C,,,,,,,0%,0%,0%,0%,0%,
CN1C[C@H](c2cc(F)cc(F)c2)[C@@H](C(=O)NC2CCc3ccccc32)C1=O (some centres unmarked) [Compound 755],135 to 139 °C,,,,,,,0%,0%,0%,0%,0%,
CN1CC[C@H](c2cccc(C(F)(F)F)c2)[C@@H](C(=O)Nc2cccc(F)c2F)C1=O [Compound 1330],54 to 57 °C,85%,90%,0%,0%,0%,20%,,,,,,
CN1C[C@H](c2cccc(S(C)(=O)=O)c2)[C@@H](C(=O)Nc2cccc(F)c2F)C1=O (racemic) [Compound 777],,,,,,,,30%,0%,0%,20%,0%,
CN1C[C@H](c2nccs2)[C@@H](C(=O)Nc2ccccc2F)C1=O [Compound 773],69.5 to 77 °C,,,,,,,0%,0%,0%,0%,0%,
CN1C[C@H](c2ccc(OC(F)F)cc2)[C@@H](C(=O)Nc2ccccc2S(C)(=O)=O)C1=O [Compound 788],,,,,,,,20%,60%,0%,0%,20%,
CN1CC[C@H](c2ccc3c(c2)OC(F)(F)O3)[C@@H](C(=O)Nc2ccc(F)c(F)c2F)C1=O [Compound 813],,,,,,,,70%,100%,0%,20%,,"pest or weed control at 125 g/ha ([4]; postemergence, visual injury rating after approximately 10 d, read-out: Ryegrass, Italian plant response rating (0 to 100 scale, 0 no effect, 100 complete control)): 20%; pest or weed control at 31 g/ha ([4]; Postemergence, 31 g ai/ha, visual injury after approx. 10 d, 0 to 100 scale, 0 no effect, 100 complete control, read-out: Plant response rating, Ryegrass, Italian): 0%"
Cc1ccc(NC(=O)[C@H]2C(=O)N(C)C[C@@H]2c2cc(F)cc(F)c2)c(F)c1F [Compound 771],,,,,,,,90%,100%,0%,20%,20%,
CN1CC[C@H](c2cccc(C(F)(F)F)c2)[C@@H](C(=O)Nc2ccccc2F)C1=O [Compound 1331],113 to 116 °C,70%,20%,0%,0%,0%,0%,,,,,,
CN1C[C@H](c2cc(C(F)(F)F)cs2)[C@@H](C(=O)Nc2cccc(F)c2F)C1=O [Compound 1377],,60%,90%,0%,15%,30%,60%,,,,,,
CN1C[C@H](c2ccc(C(F)(F)F)nc2)[C@@H](C(=O)Nc2cccc(F)c2F)C1=O [Compound 1372],188.1 to 192.4 °C,80%,85%,0%,40%,20%,30%,,,,,,
